Assay [1] deals with Histone deacetylase (HDAC1 and HDAC2) (Homo sapiens, UniProt Q13547+Q92769). As to the kind of experiment: Inhibition of HDAC1/2 in human HeLa cell nuclear extracts preincubated for 5 mins followed by substrate addition measured after 0.5 hrs by Color de Lys assay. The assay is classed as cell-based.
In assay [2] the test system is MDA-MB-231. Briefly: Cytotoxicity against human MDA-MB-231 cells assessed as inhibition of cell proliferation after 48 hrs by MTT assay. The assay is classed as functional, cell-based. The note with it: MDA-MB-231, 48 h. (In general: Formazan colour is commonly taken as a measure of viable cells.)
For assay [3], the system named is PC-3. As to the kind of experiment: cells. The assay is classed as functional, cell-based. The note with it: Homo sapiens, PC-3, 48 h.
Description: Cytotoxicity against human PC3 cells assessed as inhibition of cell proliferation after 48 hrs by MTT assay
Assay [4] relates to K562. Briefly: cells. Conditions: Homo sapiens, K562, 48 h. The assay is classed as functional, cell-based.
Description: Cytotoxicity against human K562 cells assessed as inhibition of cell proliferation after 48 hrs by MTT assay
Assay [5] deals with A549. As to the kind of experiment: cells. The assay is classed as functional, cell-based. Conditions: Homo sapiens, A549, 48 h.
Description: Cytotoxicity against human A549 cells assessed as inhibition of cell proliferation after 48 hrs by MTT assay

Molecules are shown by their SMILES. pIC50: −log10 of the molar value.

What is called IC50 is the point on the concentration scale where inhibition reaches its midpoint. Read a high IC50 as lower potency. Broadly, the pIC50 is the IC50 on a negative log10 scale, so that one unit is a factor of ten.

In assay [1], `O=C(CCCCCCC(=O)NCc1cc(C(=O)NCc2ccccc2)c2cc(Br)ccc2n1)NO` registered an IC50 above 1000 nM.

Turning to `O=C(CCCCCC(=O)NCc1cc(C(=O)NCc2ccccc2)c2ccccc2n1)NO`, the IC50 in assay [1] is 399 nM. The same measure, in the same setting: under `CNC(=O)c1cc(CNC(=O)CCCCCC(=O)NO)nc2ccccc12` stands 642 nM; under `O=C(CCCCCC(=O)NCc1cc(C(=O)Nc2ccccc2)c2cc(Br)ccc2n1)NO`, 196 nM. As to `O=C(CCCCCCC(=O)NCc1cc(C(=O)NCc2ccccc2)c2ccccc2n1)NO`, the IC50 in assay [1] was determined as 780 nM. The same measure, in the same setting: under `CCCCNC(=O)c1cc(CNC(=O)CCCCCC(=O)NO)nc2ccccc12` stands 444 nM. On the same count and under the same terms, then `CCCCNC(=O)c1cc(CNC(=O)CCCCCCC(=O)NO)nc2ccccc12`, with above 1000 nM; and `O=C(CCCCCCC(=O)NCc1ccc2ccccc2n1)NO`, with 678 nM; and `O=C(CCCCC(=O)NCc1ccc2ccccc2n1)NO`, with above 1000 nM. Still for that read-out and setting: then `O=C(CCCCCCCC(=O)NCc1cc(C(=O)NCc2ccccc2)c2cc(Br)ccc2n1)NO`, with above 1000 nM; and `O=C(CCCCCC(=O)NCc1ccc2ccccc2n1)NO`, with 266 nM; and `O=C(CCCCCCC(=O)NCc1ccc2cc(Br)ccc2n1)NO`, with 146 nM. Take `O=C(CCCCCC(=O)NCc1ccc2cc(-c3ccccc3)ccc2n1)NO`: the IC50 in assay [1] is given as 152 nM. Same read-out and setting: under `CNC(=O)c1cc(CNC(=O)CCCCCCC(=O)NO)nc2ccccc12` stands above 1000 nM.

In turn, `O=C(CCCCCC(=O)NCc1ccc2cc(I)ccc2n1)NO` yielded an IC50 in assay [1] of 132 nM. In addition, the pIC50 in assay [2] was 5.85; in assay [3], 5.07; in assay [4], 5.61; in assay [5], 5.59. For `O=C(CCCCCCCC(=O)NCc1cc(C(=O)NCc2ccccc2)c2ccccc2n1)NO`, in assay [1], the IC50 was above 1000 nM. In turn, `O=C(CCCCCC(=O)NCc1cc(C(=O)NCc2ccccc2)c2cc(-c3ccccc3)ccc2n1)NO` registered an IC50 in assay [1] of 341 nM. Same read-out and setting: then `O=C(CCCC(=O)NCc1cc(C(=O)NCc2ccccc2)c2ccccc2n1)NO`, with above 1000 nM; and `O=C(CCCCCCC(=O)NCc1cc(C(=O)Nc2ccccc2)c2cc(Br)ccc2n1)NO`, with above 1000 nM. As to `O=C(CCCCCC(=O)NCc1ccc2cc(Cl)ccc2n1)NO`, in assay [1], the IC50 is on record as 120 nM. Also, the pIC50 in assay [2] is 5.74; in assay [3] it was 5.04; in assay [4], 5.47; in assay [5], 5.57. In the case of `O=C(CCCCCC(=O)NCc1cc(C(=O)Nc2ccccc2)c2ccccc2n1)NO`, the IC50 in assay [1] worked out at 301 nM. The same measure, in the same setting: under `O=C(CCCCCC(=O)NCc1ccc2cc(F)ccc2n1)NO` stands 155 nM; under `O=C(CCCCCC(=O)NCc1cc(C(=O)NCc2ccccc2)c2cc(Br)ccc2n1)NO`, 343 nM. Same read-out and setting: then `O=C(CCCCC(=O)NCc1cc(C(=O)NCc2ccccc2)c2ccccc2n1)NO`, with above 1000 nM.

In the case of `O=C(CCCCCC(=O)NCc1ccc2cc(Br)ccc2n1)NO`, the IC50 in assay [1] was 85 nM. For the same compound, the pIC50 in assay [2] is 6.05; in assay [3], 5.03; in assay [4], 5.31; in assay [5], 5.41. For `O=C(CCCCCCC(=O)NCc1cc(C(=O)Nc2ccccc2)c2ccccc2n1)NO`, in assay [1], the IC50 stood at 562 nM.

The compound `O=C(CCCC(=O)NCc1ccc2ccccc2n1)NO` came in with an IC50 in assay [1] above 1000 nM.

These data come from ChEMBL document CHEMBL3593244, “Design, synthesis and preliminary bioactivity evaluations of substituted quinoline hydroxamic acid derivatives as novel histone deacetylase (HDAC) inhibitors” (Bioorg Med Chem, 2015).
